Data published in patent US20150086530A1, “DOSING REGIMENS FOR THE TREATMENT OF POMPE DISEASE” (Amicus Therapeutics, Inc., priority 2012, published 2015).

Assays:
[1] = Banati et al. 2011, cited from earlier work
[2] = Thigh muscle MRI before and after ERT; format: in vivo; settings: at one year of ERT
GAA [3] = assay: rhGAA activity in WBC (PBMCs) of Pompe patients; format: in vivo, human
Text: GAA activity in WBCs will be determined in blood samples by a validated assay measuring enzyme activity using 4-MUG, with and without Con A. GAA protein levels will be measured by Western blotting using anti-human GAA antibody.

[4] = Cmax following 30 mg/kg oral AT2220 or AT2221 in mice; format: in vivo; settings: mouse, plasma
GAA [5] = target: GAA (Homo sapiens, UniProt P10253); assay: Tissue GAA levels (activity, Western blot) in mice after rhGAA with 1-deoxynojirimycin hydrochloride; format: in vivo, mouse; set-up: from tissue; host or cells: heart, diaphragm, quadriceps, gastrocnemius, triceps and tongue of GAA knock-out mice injected with rhGAA; settings: GAA knock-out mice; 10, 100 or 1000 mg/kg PO 30 min before and 8, 16, 24 h after bolus IV rhGAA 10 mg/kg weekly; 2, 4, 7 days post-administration
Text: The effect of a single oral administration of 1-deoxynojirimycin hydrochloride on rhGAA tissue uptake was studied in GAA knock-out mice.

[6] = Safety assessment in Pompe patients (adverse events, urine Hex4, CPK, ALT/AST, muscle strength); format: in vivo, human; settings: for Adverse event: Intensity / Adverse event: Relation to Study Drug? / Adverse event: Was Event Serious?: per adverse event
Text: Dose escalation to the next dose level of 1-deoxynojirimycin hydrochloride may proceed following review of safety and tolerability data from the previous dose level group(s). Safety data reviewed will include adverse events (including infusion reactions), clinical laboratory tests (including creatine kinase, LDH (LDH-5), alkaline phosphatase, AST, ALT), Hex4, 12-Lead ECGs, physical examinations, muscle strength tests and vital signs.
Safety parameters will be assessed by review of changes in physical exam findings, vital signs, ECG changes over time, clinical labs, Hex4 and adverse events.
Blood samples for clinical laboratory tests (hematology, serum chemistry) and urinalyses will be collected according to the schedule in Table 1. • Hematology tests include total hemoglobin, hematocrit, erythrocyte, platelet and leukocyte counts with differential. • Coagulation (screening only) includes INR and aPTT. • Serum chemistry includes measurement of AST, ALT, alkaline phosphatase, total bilirubin, creatinine, creatine kinase, urea, glucose, calcium, sodium, potassium, magnesium, total protein, albumin, bicarbonate, LDH (LDH-5), blood urea nitrogen, chloride, and phosphate. • Urinalysis includes color, appearance, specific gravity, pH, protein, glucose, ketones, blood, leukocyte esterase, nitrite, bilirubin, urobilinogen and microscopy of sediment
Muscular strength tests, assessed by hand held dynamometer, will be conducted at Screening, Days −1 and 7 of each period and at Follow-up. Proximal and distal muscle groups will be evaluated.

[7] = tested on: T cells derived from blood from 50 healthy donors; assay: Ex vivo T cell immunogenicity (EpiScreen assay); format: cell-based, human; settings: T cells from 50 healthy donors, addition of AT2220
Text: By stabilizing the folded and active form of the rhGAA enzyme, AT2220 may mitigate ERT-induced immunogenicity since unfolded and aggregated proteins are generally more antigenic than properly folded proteins. […] The studies utilized Antitope Ltd.'s EpiScreen™ assay and are being repeated in samples from the Pompe patients in the study described by Examples 1-3.

[8] = Cohort 1 (50 mg AT2220 in Period 2), Day 2, arithmetic mean, N 4
[9] = Cohort 1 (50 mg AT2220 in Period 2), Day 7, arithmetic mean, N 4
[10] = Cohort 1 (50 mg AT2220 in Period 2), Time 0, arithmetic mean, N 4
[11] = Cohort 1 (50 mg AT2220 in Period 2), Time 4 h, arithmetic mean, N 4
[12] = Cohort 2 (100 mg AT2220 in Period 2), Day 2, arithmetic mean, N 6
[13] = Cohort 2 (100 mg AT2220 in Period 2), Day 3, arithmetic mean, N 3
[14] = Cohort 2 (100 mg AT2220 in Period 2), Day 7, arithmetic mean, N 3
[15] = Cohort 2 (100 mg AT2220 in Period 2), Time 0, arithmetic mean, N 6
[16] = Cohort 2 (100 mg AT2220 in Period 2), Time 4 h, arithmetic mean, N 6
[17] = Cohort 3 (250 mg AT2220 in Period 2), Day 2, arithmetic mean, N 6
[18] = Cohort 3 (250 mg AT2220 in Period 2), Day 3, arithmetic mean, N 3
[19] = Cohort 3 (250 mg AT2220 in Period 2), Day 7, arithmetic mean, N 3
[20] = Cohort 3 (250 mg AT2220 in Period 2), Time 0, arithmetic mean, N 6
[21] = Cohort 3 (250 mg AT2220 in Period 2), Time 4 h, arithmetic mean, N 6

Compound: rhGAA: human recombinant acid α-glucosidase; alglucosidase alfa (Myozyme/Lumizyme) enzyme replacement therapy given by intravenous infusion
- administered ERT captured by circulating antibodies [1]: approximately 40%
- Pompe patients with infusion associated reactions ([1]; patients receiving ERT infusions): approximately 50%
- decrease in muscle mass in posterior thigh [2]: 11%
- decrease in muscle mass in the anterior thigh [2]: 9.8%
- increase in intramuscular fat accumulation [2]: 8.9%
- subcutaneous fat [2]: 6.6%
- rhGAA Activity in PBMCs, % Change from Period 1 (GAA [3]; [8]): −13.9%
- rhGAA Activity in PBMCs, Period 2/Period 1 Ratio (GAA [3]; [8]): 0.9
- rhGAA Activity in PBMCs, % Change from Period 1 (GAA [3]; [9]): 4.1%
- rhGAA Activity in PBMCs, Period 2/Period 1 Ratio (GAA [3]; [9]): 1.0
- rhGAA Activity in PBMCs, % Change from Period 1 (GAA [3]; [10]): 157%
- rhGAA Activity in PBMCs, Period 2/Period 1 Ratio (GAA [3]; [10]): 2.6
- rhGAA Activity in PBMCs, % Change from Period 1 (GAA [3]; [11]): −17.5%
- rhGAA Activity in PBMCs, Period 2/Period 1 Ratio (GAA [3]; [11]): 0.8
- rhGAA Activity in PBMCs, % Change from Period 1 (GAA [3]; [12]): 81.0%
- rhGAA Activity in PBMCs, Period 2/Period 1 Ratio (GAA [3]; [12]): 1.8
- rhGAA Activity in PBMCs, % Change from Period 1 (GAA [3]; [13]): −36.7%
- rhGAA Activity in PBMCs, Period 2/Period 1 Ratio (GAA [3]; [13]): 0.6
- rhGAA Activity in PBMCs, % Change from Period 1 (GAA [3]; [14]): −5.9%
- rhGAA Activity in PBMCs, Period 2/Period 1 Ratio (GAA [3]; [14]): 0.9
- rhGAA Activity in PBMCs, % Change from Period 1 (GAA [3]; [15]): −12.4%
- rhGAA Activity in PBMCs, Period 2/Period 1 Ratio (GAA [3]; [15]): 0.9
- rhGAA Activity in PBMCs, % Change from Period 1 (GAA [3]; [16]): −8.4%
- rhGAA Activity in PBMCs, Period 2/Period 1 Ratio (GAA [3]; [16]): 0.9
- rhGAA Activity in PBMCs, % Change from Period 1 (GAA [3]; [17]): 47.5%
- rhGAA Activity in PBMCs, Period 2/Period 1 Ratio (GAA [3]; [17]): 1.5
- rhGAA Activity in PBMCs, % Change from Period 1 (GAA [3]; [18]): 240%
- rhGAA Activity in PBMCs, Period 2/Period 1 Ratio (GAA [3]; [18]): 3.4
- rhGAA Activity in PBMCs, % Change from Period 1 (GAA [3]; [19]): 49.0%
- rhGAA Activity in PBMCs, Period 2/Period 1 Ratio (GAA [3]; [19]): 1.5
- rhGAA Activity in PBMCs, % Change from Period 1 (GAA [3]; [20]): 107%
- rhGAA Activity in PBMCs, Period 2/Period 1 Ratio (GAA [3]; [20]): 2.1
- rhGAA Activity in PBMCs, % Change from Period 1 (GAA [3]; [21]): 1028%
- rhGAA Activity in PBMCs, Period 2/Period 1 Ratio (GAA [3]; [21]): 11.3

Compound: OC[C@H]1NC[C@H](O)[C@@H](O)[C@@H]1O [AT2220, (2R,3R,4R,5S)-2-hydroxymethyl-piperidine-3,4,5-triol]
- Cmax [4]: ~40 µM
- tissue GAA levels (GAA [5]): significant and dose-dependent increases
- Adverse event: Intensity ([6]; Cohort 1 (50 mg 1-DNJ-HCl)): Mild
- Adverse event: Relation to Study Drug? ([6]; Cohort 1 (50 mg 1-DNJ-HCl)): Unrelated
- Adverse event: Was Event Serious? ([6]; Cohort 1 (50 mg 1-DNJ-HCl)): No
- ALT/AST ([6]; Cohort 1 (50 mg), 4 subjects): No drug related elevations
- CPK ([6]; Cohort 1 (50 mg), 4 subjects): no drug related elevations beyond subjects' baseline values range
- Muscle strength ([6]; Cohort 1 (50 mg), 4 subjects): No change between Periods 1 and 2
- SAE / drug-related AEs ([6]; Cohort 1 (50 mg), 4 subjects): No SAE or drug-related AEs
- Urine Hex4 ([6]; Cohort 1 (50 mg), 4 subjects): no drug related elevations
- Adverse event: Intensity ([6]; Cohort 2 (100 mg 1-DNJ-HCl)): Mild
- Adverse event: Relation to Study Drug? ([6]; Cohort 2 (100 mg 1-DNJ-HCl)): Unrelated
- Adverse event: Was Event Serious? ([6]; Cohort 2 (100 mg 1-DNJ-HCl)): No
- ALT/AST ([6]; Cohort 2 (100 mg), 5 subjects): No drug related elevations
- CPK ([6]; Cohort 2 (100 mg), 5 subjects): no drug related elevations beyond subjects' baseline range
- Hex4 ([6]; Cohort 2 (100 mg), 5 subjects): no drug related elevations
- Muscle strength ([6]; Cohort 2 (100 mg), 5 subjects): No change between Periods 1 and 2
- SAE / drug-related AEs ([6]; Cohort 2 (100 mg), 5 subjects): No SAE or drug-related AEs
- Adverse Event ([6]; Cohort 2 (rhGAA alone, then rhGAA + 100 mg 1-DNJ-HCl), per patient): None
- CPK levels ([6]; Cohorts 1 and 2): did not appreciably change from baseline
- relation of reported adverse events to drug ([6]; Cohorts 1 and 2, only mild, transient adverse events reported): none of which were related to AT2220
- urine hex 4 levels ([6]; following a single dose of AT2220, Cohorts 1 and 2): either did not change from baseline, or did not show any consistent trend
- tolerability ([6]; single doses co-administered with ERT, Cohorts 1-4 (50-600 mg)): well-tolerated, with no drug-related adverse events reported
- safety and tolerability ([6]; single doses of 50 mg and 100 mg, patients with Pompe Disease): safe and well-tolerated
- immunogenicity of Myozyme and Lumizyme [7]: may significantly reduce the immunogenicity
